Literature values, collected in patent publication US12539323B2, “Anti-psychotic composition and treatment methods” (priority 2017, dated 2026).

Tested on: symptoms of schizophrenia
Details: pooled meta-analysis of celecoxib and aspirin, eight studies

Compound: CC(=O)Oc1ccccc1C(=O)O [aspirin]
- Effect on negative symptoms of schizophrenia: no benefit
- Hedges' g, positive symptoms: −0.189
- Hedges' g, total symptoms (trend level): −0.236
